Earlier results on one compound are cited in patent US20180193283A1, “TRANSDERMAL THERAPEUTIC SYSTEM CONTAINING ASENAPINE” (LTS LOHMANN Therapie-Systeme AG, priority 2016, published 2018).

Molecules are shown by their SMILES. Where two headings read alike, the source gives them in different places.

For data set [1] the following is noted: very common side effects.

For `CN1C[C@H]2c3ccccc3Oc3ccc(Cl)cc3[C@@H]2C1` (relative stereo) [asenapine, (3aRS,12bRS)-rel-5-chloro-2,3,3a,12b-tetrahydro-2-methyl-1H-dibenz[2,3:6,7]oxepino[4,5-c]pyrrole], in data set [1], the “Somnolence and anxiety, frequency” value was ≥ 10 % of the patients. For the same compound, the bioavailability by setting is: (if ingested) less than 2%; (when taken sublingually) 35%. Also, for the setting “sublingual administration, therapeutic doses”, the terminal disposition half-life was not below 24 h.
